Where two headings read alike, the source gives them in different places.
How the values were obtained:
[1] = target: T1, human Y5 receptor (hNPY-5) (Homo sapiens, UniProt Q15761); assay: Radioligand binding to membranes, cloned human Y5 receptor
T1 construct: expressed in transfected cells; host or cells: mouse fibroblast LM(tk-) cells, e.g. L-hY5-7 (ATCC CRL-11995)
T1 sequence (Q15761 1-445): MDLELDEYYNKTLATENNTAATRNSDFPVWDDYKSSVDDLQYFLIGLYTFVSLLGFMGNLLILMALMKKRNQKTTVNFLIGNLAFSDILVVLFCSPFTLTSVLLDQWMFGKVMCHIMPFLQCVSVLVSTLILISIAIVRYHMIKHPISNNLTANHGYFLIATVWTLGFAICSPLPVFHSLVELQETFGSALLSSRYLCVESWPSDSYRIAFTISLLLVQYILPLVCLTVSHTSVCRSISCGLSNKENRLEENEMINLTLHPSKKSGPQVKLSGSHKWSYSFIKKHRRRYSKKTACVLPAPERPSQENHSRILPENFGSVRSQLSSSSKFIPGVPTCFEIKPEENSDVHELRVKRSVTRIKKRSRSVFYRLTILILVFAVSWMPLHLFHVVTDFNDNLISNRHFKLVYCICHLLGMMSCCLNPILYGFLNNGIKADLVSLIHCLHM
Method in brief: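 Competition binding on membranes from stably transfected 293 or LM(tk-) cells, with 0.08 nM ¹²⁵I-PYY in pH 7.4 HEPES buffer plus 0.1% BSA, 120 min at 30 °C, filtration and counting. Nonspecific binding defined by 300 nM human NPY, or 100 nM human PP for Y4; nonlinear regression.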

[2] = target: T2, human Y5 receptor (h NPY-5) (Homo sapiens, UniProt Q15761); assay: Functional assay: radioimmunoassay of cAMP; type: cell-based; settings: functional antagonism, forskolin-stimulated cAMP, cells stably transfected with human Y5
T2 construct: expressed in transfected cells; host or cells: mouse fibroblast LM(tk-) cells, e.g. L-hY5-7 (ATCC CRL-11995)
T2 sequence (Q15761 1-445): T1 sequence (Q15761 1-445)
Description: LM(tk-) cells stably transfected with the human Y5 receptor were routinely converted from an adherent monolayer to a viable suspension. Adherent cells were harvested with trypsin at the point of confluence, resuspended in a minimal volume of complete DMEM for a cell count, and further diluted to a concentration of 10^6 cells/ml in suspension media (10% bovine calf serum, 10% 10× Medium 199 (Gibco), 9 mM NaHCO3, 25 mM glucose, 2 mM L-glutamine, 100 units/ml penicillin/100 μg/ml streptomycin, and 0.05% methyl cellulose). The cell suspension was maintained in a shaking incubator at 37° C., 5% CO2 for 24 hours. Membranes harvested from cells grown in this manner may be stored as large, uniform batches in liquid nitrogen. Alternatively, cells may be returned to adherent cell culture in complete DMEM by distribution into 96-well microtiter plates coated with poly-D-lysine (0.01 mg/ml) followed by incubation at 37° C., 5% CO2 for 24 hours. Cells prepared in this manner yielded a robust and reliable NPY-dependent response in cAMP radio-immunoassays as further described hereinbelow.
Stably transfected cells were seeded into 96-well microtiter plates and cultured until confluent. To reduce the potential for receptor desensitization, the serum component of the media was reduced to 1.5% for 4 to 16 hours before the assay. Cells were washed in Hank's buffered saline, or HBS (150 mM NaCl, 20 mM HEPES, 1 mM CaCl2, 5 mM KCl, 1 mM MgCl2, and 10 mM glucose) supplemented with 0.1% bovine serum albumin plus 5 mM theophylline and pre-equilibrated in the same solution for 20 min at 37° C. in 5% CO2. Cells were then incubated 5 min with 10 μM forskolin and various concentrations of receptor-selective ligands. The assay was terminated by the removal of HBS and acidification of the cells with 100 mM HCl. Intracellular cAMP was extracted and quantified with a modified version of a magnetic bead-based radioimmunoassay (Advanced Magnetics, Cambridge, Mass.). The final antigen/antibody complex was separated from free ^125I-cAMP by vacuum filtration through a PVDF filter in a microtiter plate (Millipore, Bedford, Mass.). Filters were punched and counted for ^125I in a Packard gamma counter. Binding data were analyzed using nonlinear regression and statistical techniques available in the GraphPAD Prism package (San Diego, Calif.).

[3] = target: hNPY-1,2,4 (human Y1, Y2, Y4 receptors); assay: Radioligand binding to membranes, cloned human Y1, Y2 and Y4 receptors; settings: one bound given for all three
Description: Binding of the compounds of the present invention to human Y1, Y2, Y4, and Y5 receptors was evaluated using stably transfected 293 or LM(tk-) cells as described above. Stably transfected cell lines which may be used for binding assays include, for example, for the human Y1 receptor, 293-hY1-5 (deposited Jun. 4, 1996, under ATCC Accession No. CRL-12121), for the human Y2 receptor, 293-hY2-10 (deposited Jan. 27, 1994, under ATCC Accession No. CRL-11537), for the human Y4 receptor, L-hY4-3 (deposited Jan. 11, 1995, under ATCC Accession No. CRL-11779), and for human Y5 receptor, L-hY5-7 (deposited Nov. 15, 1995, under ATCC Accession No. CRL-11995). These cell lines were deposited with the American Type Culture Collection (ATCC), 10801 University Blvd., Manassas, Va. 20110-2209, U.S.A. under the provisions of the Budapest Treaty for the International Recognition of the Deposit of Microorganisms for the Purposes of Patent Procedure.
Membranes were harvested from COS-7 cells 48 hours after transient transfection. Adherent cells were washed twice in ice-cold phosphate buffered saline (138 mM NaCl, 8.1 mM Na2HPO4, 2.5 mM KCl, 1.2 mM KH2PO4, 0.9 mM CaCl2, 0.5 mM MgCl2, pH 7.4) and lysed by sonication in ice-cold sonication buffer (20 mM Tris-HCl, 5 mM EDTA, pH 7.7). Large particles and debris were cleared by low speed centrifugation (200×g, 5 min, 4° C.). Membranes were collected from the supernatant fraction by centrifugation (32,000×g, 18 min, 4° C.), washed with ice-cold hypotonic buffer, and collected again by centrifugation (32,000×g, 18 min, 4° C.). The final membrane pellet was resuspended by sonication into a small volume of ice-cold binding buffer (˜1 ml for every 5 plates: 10 mM NaCl, 20 mM HEPES, 0.22 mM KH2PO4, 1.26 mM CaCl2, 0.81 mM MgSO4, pH 7.4). Protein concentration was measured by the Bradford method (Bradford, 1976) using Bio-Rad Reagent, with bovine serum albumin as a standard. Membranes were held on ice for up to one hour and used fresh, or flash-frozen and stored in liquid nitrogen.
Membranes were prepared similarly from 293, LM(tk-), and NIH-3T3 cells. To prepare membranes from baculovirus infected cells, 2×10^7 Sf21 cells were grown in 150 mm tissue culture dishes and infected with a high-titer stock of hY5BB3. Cells were incubated for 2-4 days at 27° C., no CO2 before harvesting and membrane preparation as described above.
Membrane suspensions were diluted in binding buffer supplemented with 0.1% bovine serum albumin to yield an optimal membrane protein concentration so that ^125I-PYY (or alternative radioligand such as ^125I-NPY, ^125I-PYY3-36, or ^125I-[Leu^31Pro^34]PYY) bound by membranes in the assay was less than 10% of ^125I-PYY (or alternative radioligand) delivered to the sample (100,000 dpm/sample=0.08 nM for competition binding assays). ^125I-PYY (or alternative radioligand) and peptide competitors were also diluted to desired concentrations in supplemented binding buffer. Individual samples were then prepared in 96-well polypropylene microtiter plates by mixing 125I-PYY (25 μL) (or alternative radioligand), competing peptides or supplemented binding buffer (25 μL), and finally, membrane suspensions (200 μL). Samples were incubated in a 30° C. water bath with constant shaking for 120 min. Incubations were terminated by filtration over Whatman GF/C filters (pre-coated with 1% polyethyleneimine and air-dried before use), followed by washing with 5 mL of ice-cold binding buffer. Filter-trapped membranes were impregnated with MeltiLex solid scintillant (Wallac, Turku, Finland) and counted for ^125I in a Wallac Beta-Plate Reader. Alternatively, incubations were carried out in GF/C filter plates (pre-coated with 1% polyethyleneimine and air-dried before use), followed by vacuum filtration and three washes of 300 μL of ice-cold binding buffer. 50 μL of UltimaGold (Packard) scintillant were added and counted for ^125I in a Wallac MicroBeta Trilux. […]

[4] = binding Ki as repeated in Table 4, read-out: Ki (h NPY-5)
[5] = cloned human NPY Y5 receptor, radioligand competition binding, Tables 1-3, read-out: Ki, nM hNPY-5

Compound: COc1ccc(C)cc1S(=O)(=O)NCCCCCNc1nc2c(s1)CCCc1ccc(F)cc1-2 [Example 15, 1-Aza-9-fluoro-4,5-dihydro-2-(5-(2-methoxy-5-methyl-phenyl)sulfonylamino)pentylamino-3-thia-benzo[e]-azulene]
- Ki [1, 4]: 3.2 nM
- Ki [1, 5]: 3.2 nM
- Kb [2]: 2.51 nM

Compound: O=S(=O)(NCCCCCNc1nc2c(s1)CCCc1ccc(F)cc1-2)c1cccs1 [Example 19, 1-Aza-9-fluoro-4,5-dihydro-2-(5-(2-thienyl)-sulfonylamino)-pentylamino-3-thia-benzo[e]azulene]
- Ki [1, 5]: 5 nM
- Ki [3]: > 10000 nM
- melting point: 152 to 154 °C

Compound: Cn1cnc(S(=O)(=O)NCCCCCNc2nc3c(s2)CCCc2ccc(F)cc2-3)c1 [Example 23, 1-Aza-9-fluoro-4,5-dihydro-2-(5-(1-methylimidazol-4-yl)sulfonylamino)pentylamino-3-thia-benzo[e]azulene]
- Ki [1, 5]: 15.5 nM
- Ki [3]: > 10000 nM
- melting point: 50 to 53 °C

Compound: CS(=O)(=O)N[C@H]1CC[C@H](Nc2nc3c(s2)CCCc2ccc(F)cc2-3)CC1 [Example 34, trans-1-Aza-9-fluoro-4,5-dihydro-2-(4-methyl-sulfonylamino)-cyclohexylamino-3-thia-benzo[e]azulene]
- Ki [1, 4]: 33.5 nM
- Ki [1, 5]: 34 nM
- Kb [2]: 63.1 nM
- melting point: 179 to 181 °C

Compound: CCN(CC)S(=O)(=O)N[C@H]1CC[C@H](Nc2nc3c(s2)CCCc2ccc(F)cc2-3)CC1 [Example 35, trans-1-Aza-9-fluoro-4,5-dihydro-2-(4-diethylamino-sulfonylamino)cyclohexylamino-3-thia-benzo[e]azulene]
- Ki [1, 5]: 6.5 nM
- Ki [3]: > 10000 nM
- melting point: 172 to 174 °C

Compound: O=S(=O)(N[C@H]1CC[C@H](Nc2nc3c(s2)CCCc2ccc(F)cc2-3)CC1)c1cccs1 [Example 37, trans-1-Aza-9-fluoro-4,5-dihydro-2-(4-(2-thienyl)-sulfonyl-amino)cyclohexylamino-3-thia-benzo[e]azulene]
- Ki [1, 5]: 7.4 nM
- Ki [3]: > 10000 nM
- melting point: 230 to 231 °C

Compound: O=S(=O)(CC(F)(F)F)N[C@H]1CC[C@H](Nc2nc3c(s2)CCCc2ccc(F)cc2-3)CC1 [Example 38, trans-1-Aza-9-fluoro-4,5-dihydro-2-(4-(2,2,2-trifluoro-ethyl)sulfonylamino)cyclohexylamino-3-thia-benzo [e]azulene]
- Ki [1, 5]: 15.8 nM
- Ki [3]: > 10000 nM
- melting point: 89 to 91 °C

Compound: CS(=O)(=O)NCCCCC(=O)Nc1nc2c(s1)CCCc1ccc(F)cc1-2 [Example 45, N1-(9-fluoro-5,6-dihydro-4H-benzo[6,7]cyclohepta-[d][1,3]thiazol-2-yl)-5-[(methylsulfonyl)amino]-pentanamide]
- Ki [1, 5]: 65 nM
- Ki [3]: > 10000 nM
- melting point: 145 to 147 °C

Compound: NS(=O)(=O)NC[C@H]1CC[C@H](Nc2nc3c(s2)CCOc2ccccc2-3)CC1 [Example 46, trans-N2-(4-Aminosulfonylaminomethyl)cyclohexyl-4,5-dihydro-benzo[2,3]oxepino[4,5-d][1,3]thiazol-2-amine]
- Ki [1, 5]: 34 nM
- Ki [3]: > 10000 nM
- melting point: 170 to 173 °C

Compound: CS(=O)(=O)NC[C@H]1CC[C@H](Nc2nc3c(s2)CCOc2ccccc2-3)CC1 [Example 47, trans-N2-(4-Methylsulfonylaminomethyl)cyclohexyl-4,5-dihydro-benzo[2,3]oxepino[4,5-d][1,3]thiazol-2-amine]
- Ki [1, 5]: 22 nM
- Ki [3]: > 10000 nM
- melting point: 67 to 69 °C

Compound: CS(=O)(=O)N[C@H]1CC[C@H](CNc2nc3c(s2)CCOc2ccccc2-3)CC1 [Example 50, trans-N2-(4-Methylsulfonylamino)cyclohexylmethyl-4,5-dihydro-benzo[2,3]oxepino[4,5-d][1,3]thiazol-2-amine]
- Ki [1, 4]: 15.3 nM
- Ki [1, 5]: 15.3 nM
- Kb [2]: 7.94 nM
- melting point: 64 to 67 °C

Compound: O=C1OCCN1C[C@H]1CC[C@H](Nc2nc3c(s2)CCCc2ccc(F)cc2-3)CC1 [Example 79, 3-({4-[(9-fluoro-5,6-dihydro-4H-benzo[6,7]cyclohepta-[d][1,3]thiazol-2-yl)amino]cyclohexyl}methyl)-1,3-oxazolan-2-one]
- Ki [1, 4]: 20.1 nM
- Ki [1, 5]: 20 nM
- Kb [2]: 12.6 nM

Compound: COCC(=O)NC[C@H]1CC[C@H](Nc2nc3c(s2)CCCc2ccc(F)cc2-3)CC1 [Example 80, N1-({4-[(9-fluoro-5,6-dihydro-4H-benzo[6,7]-cyclohepta-[d][1,3]thiazol-2-yl)amino]cyclohexyl}-methyl)-2-methoxyacetamide]
- Ki [1, 4]: 32.9 nM
- Ki [1, 5]: 33 nM
- Kb [2]: 39.8 nM
